From paper PMC7432509, “Investigating the Product Profiles and Structural Relationships of New Levansucrases with Conventional and Non-Conventional Substrates” (International Journal of Molecular Sciences, 2020)

Tests used:
Format in all cases: biochemical
[1] = target: T1, LS from Gluconobacter oxydans (Gluconobacter oxydans, UniProt Q5FSK0); assay: HPAEC-PAD, bioconversion of raffinose; details: raffinose as sole fructosyl donor and acceptor (0.8 M in methods, 0.9 M in figure legend)
T1 construct: gene GOX0873; pET22b(+), E. coli BL21(DE3), HisTrap purified
T1 sequence (Q5FSK0 1-436): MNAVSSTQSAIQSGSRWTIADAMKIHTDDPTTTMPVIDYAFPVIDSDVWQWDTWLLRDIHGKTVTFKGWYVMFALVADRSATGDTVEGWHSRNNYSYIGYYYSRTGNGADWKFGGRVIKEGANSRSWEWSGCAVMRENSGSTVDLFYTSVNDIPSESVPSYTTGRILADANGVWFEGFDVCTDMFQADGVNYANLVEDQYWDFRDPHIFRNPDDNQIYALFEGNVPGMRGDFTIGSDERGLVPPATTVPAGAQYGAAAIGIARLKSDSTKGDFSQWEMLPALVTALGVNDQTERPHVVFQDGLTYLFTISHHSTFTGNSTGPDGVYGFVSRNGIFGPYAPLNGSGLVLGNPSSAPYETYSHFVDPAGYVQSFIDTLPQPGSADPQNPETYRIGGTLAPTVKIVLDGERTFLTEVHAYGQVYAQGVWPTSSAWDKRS

[2] = target: T2, LS from Paraburkholderia graminis (Paraburkholderia graminis, UniProt B1G3X6); assay: HPAEC-PAD, bioconversion of raffinose; details: raffinose as sole fructosyl donor and acceptor (0.8 M in methods, 0.9 M in figure legend)
T2 construct: gene BgramDRAFT_4066; pET22b(+), E. coli BL21(DE3), HisTrap purified
T2 sequence (B1G3X6 36-529): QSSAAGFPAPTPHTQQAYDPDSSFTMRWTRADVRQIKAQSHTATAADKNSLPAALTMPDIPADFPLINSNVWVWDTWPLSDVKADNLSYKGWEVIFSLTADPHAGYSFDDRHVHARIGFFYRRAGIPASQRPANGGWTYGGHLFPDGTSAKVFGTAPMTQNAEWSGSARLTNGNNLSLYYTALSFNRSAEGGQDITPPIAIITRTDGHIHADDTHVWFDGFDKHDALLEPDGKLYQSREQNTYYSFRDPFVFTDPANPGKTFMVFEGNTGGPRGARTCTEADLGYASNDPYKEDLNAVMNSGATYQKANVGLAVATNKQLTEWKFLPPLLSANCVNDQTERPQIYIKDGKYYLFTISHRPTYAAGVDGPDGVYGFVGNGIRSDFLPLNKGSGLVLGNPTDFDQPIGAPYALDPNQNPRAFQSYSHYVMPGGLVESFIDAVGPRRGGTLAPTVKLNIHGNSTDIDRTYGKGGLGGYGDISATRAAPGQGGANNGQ

[3] = target: T3, LS from Beijerinckia indica subsp. indica (Beijerinckia indica, UniProt B2IF78); assay: HPAEC-PAD, bioconversion of raffinose; details: raffinose as sole fructosyl donor and acceptor (0.8 M in methods, 0.9 M in figure legend)
T3 construct: gene Bind_2021; pET22b(+), E. coli BL21(DE3), HisTrap purified
T3 sequence (B2IF78 29-534): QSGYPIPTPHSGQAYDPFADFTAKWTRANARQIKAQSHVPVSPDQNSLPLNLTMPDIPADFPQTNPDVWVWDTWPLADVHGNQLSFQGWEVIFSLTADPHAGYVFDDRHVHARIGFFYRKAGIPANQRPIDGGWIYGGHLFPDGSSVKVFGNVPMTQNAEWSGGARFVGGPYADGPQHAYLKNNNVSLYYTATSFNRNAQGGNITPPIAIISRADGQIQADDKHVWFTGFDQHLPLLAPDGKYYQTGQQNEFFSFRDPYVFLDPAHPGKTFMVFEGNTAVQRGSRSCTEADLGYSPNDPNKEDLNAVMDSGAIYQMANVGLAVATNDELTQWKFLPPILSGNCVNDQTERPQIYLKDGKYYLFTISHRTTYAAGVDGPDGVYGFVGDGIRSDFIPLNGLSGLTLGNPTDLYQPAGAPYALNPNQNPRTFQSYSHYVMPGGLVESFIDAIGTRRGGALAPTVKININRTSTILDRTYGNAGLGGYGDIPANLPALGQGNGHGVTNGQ

[4] = target: T4, LS from Novosphingobium aromaticivorans (Novosphingobium aromaticivorans, UniProt Q2G754); assay: HPAEC-PAD, bioconversion of raffinose; details: raffinose as sole fructosyl donor and acceptor (0.8 M in methods, 0.9 M in figure legend)
T4 construct: gene Saro_1879; pET22b(+), E. coli BL21(DE3), HisTrap purified
T4 sequence (Q2G754 1-377): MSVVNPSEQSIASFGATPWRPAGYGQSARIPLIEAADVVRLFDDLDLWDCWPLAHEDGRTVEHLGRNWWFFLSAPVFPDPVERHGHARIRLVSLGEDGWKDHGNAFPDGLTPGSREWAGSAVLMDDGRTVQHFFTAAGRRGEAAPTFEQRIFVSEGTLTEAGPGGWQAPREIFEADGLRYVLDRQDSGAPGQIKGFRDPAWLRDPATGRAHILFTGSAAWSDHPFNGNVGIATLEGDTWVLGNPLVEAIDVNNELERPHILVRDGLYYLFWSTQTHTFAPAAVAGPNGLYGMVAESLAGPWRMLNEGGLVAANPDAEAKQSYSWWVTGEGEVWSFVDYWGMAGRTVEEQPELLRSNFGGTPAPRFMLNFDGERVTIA

[5] = target: T5, LS from Vibrio natriegens (Vibrio natriegens, UniProt A0AAN0Y6N0); assay: HPAEC-PAD, bioconversion of raffinose; details: raffinose as sole fructosyl donor and acceptor (0.8 M in methods, 0.9 M in figure legend)
T5 construct: gene BA890_19745; pET22b(+), E. coli BL21(DE3), HisTrap purified
T5 sequence (A0AAN0Y6N0 28-523): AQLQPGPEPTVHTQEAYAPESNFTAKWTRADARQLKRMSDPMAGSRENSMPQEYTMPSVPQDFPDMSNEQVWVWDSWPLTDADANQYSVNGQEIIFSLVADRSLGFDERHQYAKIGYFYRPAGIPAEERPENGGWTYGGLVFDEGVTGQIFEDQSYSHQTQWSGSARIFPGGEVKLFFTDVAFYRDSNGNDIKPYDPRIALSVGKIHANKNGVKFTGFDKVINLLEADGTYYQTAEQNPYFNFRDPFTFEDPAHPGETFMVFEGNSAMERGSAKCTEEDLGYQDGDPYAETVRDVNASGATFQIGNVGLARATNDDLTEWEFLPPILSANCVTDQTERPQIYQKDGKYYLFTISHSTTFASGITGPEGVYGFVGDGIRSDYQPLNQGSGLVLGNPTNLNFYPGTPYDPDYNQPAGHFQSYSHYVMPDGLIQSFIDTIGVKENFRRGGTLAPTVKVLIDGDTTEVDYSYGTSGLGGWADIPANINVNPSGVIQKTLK

[6] = target: T1, LS from Gluconobacter oxydans; assay: HPAEC-PAD time course of sucrose conversion; details: 0.8 M sucrose, 30 °C, 5-7 U/mL; fructosyl donor and acceptor
[7] = target: T2, LS from Paraburkholderia graminis; assay: HPAEC-PAD time course of sucrose conversion; details: 0.8 M sucrose, 30 °C, 5-7 U/mL; fructosyl donor and acceptor

SMILES	HPAEC-PAD, bioconversion of raffinose [1]	HPAEC-PAD, bioconversion of raffinose [2]	HPAEC-PAD, bioconversion of raffinose [3]	HPAEC-PAD, bioconversion of raffinose [4]	HPAEC-PAD, bioconversion of raffinose [5]	HPAEC-PAD time course of sucrose conversion [6]	HPAEC-PAD time course of sucrose conversion [7]
OC[C@H]1O[C@H](OC[C@H]2O[C@H](O[C@]3(CO)O[C@H](CO)[C@@H](O)[C@@H]3O)[C@H](O)[C@@H](O)[C@@H]2O)[C@H](O)[C@@H](O)[C@H]1O [raffinose]	All LSs were able to produce a few different trisaccharides	LS from P. graminis catalyzed the synthesis of multiple oligosaccharides using raffinose	LS from V. natriegens, N. aromaticivorans, and B. indica subsp. indica preferred raffinose as the substrate	LS from V. natriegens, N. aromaticivorans, and B. indica subsp. indica preferred raffinose as the substrate	LS from V. natriegens, N. aromaticivorans, and B. indica subsp. indica preferred raffinose as the substrate		
OC[C@H]1O[C@@](CO)(O[C@H]2O[C@H](CO)[C@@H](O)[C@H](O)[C@H]2O)[C@@H](O)[C@@H]1O [sucrose]						The LSs from G. oxydans and P. graminis almost depleted the sucrose	The LS from P. graminis used the highest amount of sucrose amongst all the enzymes tested
